Experimental data published in patent US20240165123A1, “USE OF A COMPOUND CONTAINING A TRICYCLIC HETEROARYL GROUP” (CSPC Zhongqi Pharmaceutical Technology (Shijiazhuang) Co., …, priority 2021, published 2024).

How the values were obtained:
[1] = tested on: OXA-induced Balb/c mouse atopic dermatitis model; assay: Pharmacodynamic test in the OXA-induced mouse atopic dermatitis model; format: in vivo, female Balb/c mice
Text: The purpose of this test was to evaluate the pharmacodynamics of Compound (I) in the OXA-induced Balb/c mouse atopic dermatitis model. Repeated OXA stimulation of the dorsal skin of mice could produce a long-term inflammatory reaction. This model was closer to the clinical skin inflammation and was a common model for screening and evaluating compounds with anti-inflammatory activity.
Female Balb/c mice aged 8-9 weeks, number: 70
According to the body weight of animals in each group before administration, they were randomly divided into 7 groups with 10 animals in each group.
OXA induction was performed on the 7th day. The induction mode was to apply 5% OXA (dissolved in the acetone/olive oil (4/1) solvent) to the back of mice near the neck in an amount of 10 μL (1.5 cm×1.5 cm). Mice in the normal control group were applied with 10 μL of the acetone/olive oil (4/1) solvent in the same way. From the 1st da to 22nd day, the immunostimulation was performed, and 100 μL of 0.1% OXA (dissolved in the acetone/olive oil (4/1) solvent) was evenly applied on the back of mice near the neck. The application was performed every two days. Mice in the normal control group were applied with 100 μL of the acetone/olive oil (4/1) solvent in the same way. On the day of the immunostimulation, measuring the skin thickness, clinically scoring and photographing were required, and the OXA application was carried out after the above work was completed.
Compound (I) was administered by gavage twice a day (PO, bid) from the 1st to 22nd day. The administration was performed in the morning and completed before measuring the skin thickness, clinically scoring, photographing, and the OXA immunostimulation. The interval between two administrations was 8 hours.
Body weight data were recorded twice a week.
Skin thickness (1.5 cm×1.5 cm, the modeling area) was measured with a Mitutoyo digital indicator (Mitutoyo digimatic indicator, Type ID-C, USA) from the 1st to 22nd day. The measurement was performed every two days. If the skin thickness measurement and the OXA immunostimulation were performed on the same day, the skin thickness measurement would be preferred.
The skin in the modeling area was clinically scored according to the skin scoring criteria in Table 12 from the 1st to 22nd day and evaluated every two days. If the skin clinical scoring and the OXA immunostimulation were performed on the same day, the skin clinical scoring would be preferred.
At the end of the study, the tissue in the modeling area was stained with hematoxylin eosin for the skin pathological scoring and the epidermal thickness measurement.
After the mice were sacrificed, the dorsal skin was removed and fixed in 10% neutral formalin for 24 hours. It was dehydrated, then embedded in paraffin and made into 4-micron sections. The skin sections were stained with hematoxylin eosin, and the inflammatory cell infiltration and tissue changes in the stratum corneum, the epidermis layer and the dermis layer were observed under the microscope, and the pathological scores were made. The scoring criteria were: inflammatory cell aggregation and edema, which were divided into slight 1 point, moderate 2 points, and severe 3 points; telangiectasia, which was divided into slight 1 point, moderate 2 points, and severe 3 points.
The specific scoring criteria of inflammatory cell aggregation were as follows: (1) slight-1 point: inflammatory cells occupied a small amount of <10% of the dermal area of the skin; (2) moderate-2 points: inflammatory cells occupied 10%-50% of the dermal area of the skin; (3) severe-3 points: the inflammatory cells occupied greater than 50% of the dermal area of the skin. […]

[2] = Genotoxicity
[3] = Toxicity test of oral gavage administration in SD rats, 28 consecutive days; format: in vivo; conditions: for AUC: NOAEL 10 mg/kg/time BID, 28-day test; for Safety window, exposure method: NOAEL 28-day test
Experimental: (§1) According to the general toxicology study in accordance with the NMPA “Good Laboratory Practice for Non-clinical Laboratory Studies” and FDA GLP specification (21CFR Part 58), and in line with the requirements of International Conference on Harmonization of Technical Requirements for Registration of Pharmaceuticals for Human Use (ICH) and the NMPA relevant guidelines, the toxicology study on Compound (I) was carried out to provide safety data support for the use of Compound (I) in clinical patients. The administration mode and the experimental results were as follows: […]

[4] = in vivo; set-up: species or system SD rats; conditions: SD, rat, po
Experimental: as §1

[5] = Toxicity test of single oral gavage administration in Beagle dogs; format: in vivo; conditions: administered twice within 24 hours
Experimental: as §1

[6] = 3 mpk PO bid, after 22 days of treatment

NC(=O)c1cnc(Nc2ccc3c(c2)OC[C@H]2CN(S(=O)(=O)C4CC4)CCN32)nc1NC1CC1 [Compound (I), (R)-4-(cyclopropylamino)-2-((3-(cyclopropylsulfonyl)-1,2,3,4,4a,5-hexahydrobenzo[b]pyrazolo[1,2-d][1,4]oxazin-8-yl)amino)pyrimidine-5-arboxamide]
Influence on the body weight of mice ([1]; 3, 10, 30 and 60 mpk PO bid, end of the study): no significant influence on the body weight of mice | Body weight ([1]; 3 mpk PO bid, 1st Day): 18.11 ± 0.13 g | Skin clinical score ([1]; 3 mpk PO bid, 1st Day): 0.4 ± 0.16 | Skin thickness (modeling area) ([1]; 3 mpk PO bid, 1st day): 0.511 ± 0.016 mm | Body weight ([1]; 3 mpk PO bid, 7th Day): 18.83 ± 0.20 g | Skin thickness (modeling area) ([1]; 3 mpk PO bid, 7th day): 0.944 ± 0.026 mm | Skin clinical score ([1]; 3 mpk PO bid, 9th day): 3.1 ± 0.10 | Skin thickness (modeling area) ([1]; 3 mpk PO bid, 17th day): 1.361 ± 0.043 mm | Skin clinical score ([1]; 3 mpk PO bid, 19th day): 2.9 ± 0.10 | Skin clinical score ([1]; 3 mpk PO bid, 22nd day): 3.0 ± 0.00 | Skin thickness (modeling area) ([1]; 3 mpk PO bid, 22nd day): 1.368 ± 0.028 mm | Epidermal thickness [1, 6]: 75.79 ± 3.36 μm | Pathological score [1, 6]: 6.4 ± 0.34 | Body weight ([1]; 3 mpk PO bid, −7th Day): 18.11 ± 0.13 g | Body weight ([1]; 10 mpk PO bid, 1st Day): 18.11 ± 0.13 g | Skin clinical score ([1]; 10 mpk PO bid, 1st Day): 0.4 ± 0.16 | Skin thickness (modeling area) ([1]; 10 mpk PO bid, 1st day): 0.535 ± 0.027 mm | Body weight ([1]; 10 mpk PO bid, 7th Day): 18.80 ± 0.22 g | Skin thickness (modeling area) ([1]; 10 mpk PO bid, 7th day): 0.958 ± 0.026 mm | Skin clinical score ([1]; 10 mpk PO bid, 9th day): 3.0 ± 0.00 | Skin thickness (modeling area) ([1]; 10 mpk PO bid, 17th day): 1.257 ± 0.020 mm | Skin clinical score ([1]; 10 mpk PO bid, 19th day): 2.7 ± 0.15 | Skin clinical score ([1]; 10 mpk PO bid, 22nd day): 2.7 ± 0.15 | Skin thickness (modeling area) ([1]; 10 mpk PO bid, 22nd day): 1.338 ± 0.021 mm | Body weight ([1]; 10 mpk PO bid, −7th Day): 18.11 ± 0.13 g | Body weight ([1]; 30 mpk PO bid, 1st Day): 18.10 ± 0.12 g | Skin clinical score ([1]; 30 mpk PO bid, 1st Day): 0.5 ± 0.17 | Skin thickness (modeling area) ([1]; 30 mpk PO bid, 1st day): 0.534 ± 0.029 mm | Body weight ([1]; 30 mpk PO bid, 7th Day): 18.79 ± 0.11 g | Skin thickness (modeling area) ([1]; 30 mpk PO bid, 7th day): 0.976 ± 0.021 mm | Skin clinical score ([1]; 30 mpk PO bid, 9th day): 3.0 ± 0.00 | Body weight ([1]; 30 mpk PO bid, −7th Day): 18.10 ± 0.12 g | Body weight ([1]; 60 mpk PO bid, 1st Day): 18.10 ± 0.12 g | Skin clinical score ([1]; 60 mpk PO bid, 1st Day): 0.6 ± 0.16 | Skin thickness (modeling area) ([1]; 60 mpk PO bid, 1st day): 0.556 ± 0.035 mm | Body weight ([1]; 60 mpk PO bid, 7th Day): 18.92 ± 0.13 g | Skin thickness (modeling area) ([1]; 60 mpk PO bid, 7th day): 0.993 ± 0.033 mm | Skin clinical score ([1]; 60 mpk PO bid, 9th day): 3.0 ± 0.00 | Body weight ([1]; 60 mpk PO bid, −7th Day): 18.10 ± 0.12 g | Genotoxicity [2]: no genotoxicity | Safety window, according to the exposure ([3]; SD rats, both sexes, NOAEL 28-day test vs rat effective dose exposure): 8-13 fold | Safety window, dose method ([3]; SD rats, NOAEL 28-day test vs rat effective dose): 3 fold | Safety window of human equivalent dose of NOAEL relative to the human initial dose ([3]; SD, rat, in vivo, 28 days): 16 fold | NOAEL at 28 days ([3]; SD, rat, in vivo, po): 20 mg/kg/day | AUC ([3]; female, SD, rat, in vivo, po, rats ♀): 58100 ng·h/mL | AUC ([3]; male, SD, rat, in vivo, po, rats ♂): 33900 ng·h/mL | Human equivalent dose (based on 60 kg body weight) ([3]; of NOAEL for 28-day test of rats): 242 mg | NOAEL of repeated administration for 28 days ([3]; rat, in vivo, po): 10 mg/kg/time | Safety window, exposure method ([3]; rats ♀): ♀13 fold | Safety window, exposure method ([3]; rats ♂): ♂8 fold | NOAEL [4]: 2000 mg/kg | MTD [5]: 500 mg/kg/time | MTD at 24 h ([5]; dog, in vivo): 1000 mg/kg/day
